# pIC50: −log10 of the molar value.
# System: NCI-H460
# Assay: Cytotoxicity against human NCI-H460 cells incubated for 72 hrs by cell-titer 96 aqueous non-radioactive cell proliferation assay
# Type: functional, cell-based
# Details: NCI-H460, 72 h
row,SMILES,pIC50
1,CC(=O)OC/C(=C/CO)[C@@H]1C[C@@H]2[C@@]3(C)CCCC(C)(C)[C@@H]3CC[C@@]2(C)O1,< 5.00
2,CC1(C)CCC[C@]2(C)[C@H]3C[C@@H](/C(=C\CO)CO)O[C@]3(C)CC[C@@H]12,< 5.00
3,CC(=O)OC[C@]1([C@@H]2C[C@@H]3[C@@]4(C)CCCC(C)(C)[C@@H]4CC[C@@]3(C)O2)O[C@H]1CO,< 5.00
4,CC(=O)OCC(O)(C(O)CO)[C@@H]1C[C@@H]2[C@@]3(C)CCCC(C)(C)[C@@H]3CC[C@@]2(C)O1 (some centres undefined),< 5.00
5,CC(=O)OCC(O)C(O)(CO)[C@@H]1C[C@@H]2[C@@]3(C)CCCC(C)(C)[C@@H]3CC[C@@]2(C)O1 (some centres undefined),< 5.00
6,CC1(C)CCC[C@]2(C)[C@H]3C[C@@H](C(O)(CO)C(O)CO)O[C@]3(C)CC[C@@H]12 (some centres undefined),< 5.00
7,C/C(=C\CC/C=C(\C)CC/C=C(\C)CCC(O)C(C)(C)O)C/C=C/[C@@]1(C)CC[C@@H](C(C)(C)O)O1 (some centres undefined),5.05
8,C/C(=C\CCC/C(C)=C/C(=O)C[C@@]1(C)CC[C@@H](C(C)(C)O)O1)CC/C=C(\C)CCC(O)C(C)(C)O (some centres undefined),5.22
9,CC1(C)CC[C@]2(C(=O)O)CC[C@]3(C)C(=CC[C@@H]4[C@@]5(C)CC[C@H](O[C@@H]6O[C@H](C(=O)O)[C@@H](O)[C@H](O)[C@H]6OC6O[C@H](CO)[C@@H](O)[C@H](O)[C@H]6O)C(C)(C)[C@@H]5CC[C@]43C)[C@@H]2C1 (some centres undefined),5.15
10,CC1(C)CCC[C@]2(C)[C@H]3C[C@@H]([C@@]4(CO)O[C@H]4CO)O[C@]3(C)CC[C@@H]12,< 5.00
11,CC(=O)OC[C@@]1([C@@H]2C[C@@H]3[C@@]4(C)CCCC(C)(C)[C@@H]4CC[C@@]3(C)O2)O[C@@H]1CO,< 5.00
12,CC1(C)CCC[C@]2(C)[C@H]3C[C@@H]([C@]4(CO)O[C@@H]4CO)O[C@]3(C)CC[C@@H]12,< 5.00
13,C/C(=C\CC/C=C(\C)CC/C=C(\C)CC[C@@H](O)C(C)(C)O)CC/C=C(\C)CC[C@@H](O)C(C)(C)O,5.15
14,CC1(C)CC[C@]2(C(=O)O)CC[C@]3(C)C(=CC[C@@H]4[C@@]5(C)CC[C@H](O[C@@H]6O[C@H](C(=O)O)[C@@H](O)[C@H](O)[C@H]6O)C(C)(C)[C@@H]5CC[C@]43C)[C@@H]2C1,5.22

# Reference: ChEMBL document CHEMBL3593211, “Digging Deep for New Compounds from the Compass Plant, Silphium laciniatum” (J Nat Prod, 2015)
